Data set [1] can be described thus: Plasma stability, human plasma. It is filed as in vitro ADME. The conditions noted are these: 50 μM, 37° C., over 6 hours (FIG. 12). As to the method: (§1) A 5 μL aliquot of compound solution (10 mM in DMSO) was added to 995 μL of Non Swiss Albino Mouse Plasma (DivBioScience, Breda, Netherlands) or Pooled Normal Human plasma in sodium citrate to obtain a final concentration of 50 μM compound in plasma. The mixture was gently shaken for 6 hours at 37° C. Aliquots of 100 μL were taken at various time points (0, 0.5, 1, 2 and 6 hrs.) and diluted with 400 μL of cold acetonitrile (Sigma-Aldrich, stored at 4° C.). The suspension was centrifuged at 14000 rpm for 5 min. Thereafter, 50 μL of the supernatant was diluted with 950 μL of acetonitrile and analyzed with LC-MS/MS (Waters Acquity H-class UPLC system with ion trap mass spectrometer, Bruker Daltonics Esquire 3000 plus, and Agilent 1100 Series LC system). Samples were analyzed in triplicate and plotted against a standard curve (compound at 3.12-100 μM in plasma and diluted in acetonitrile as described above).

A short description of data set [2]: Metabolic stability, mouse liver microsomes. It is filed as in vitro ADME. Conditions: for t1/2 mouse: mouse liver microsomes; for half-life at 10 µM: mouse, liver microsomes, pH 7.4, mouse liver microsomes, read-out: t1/2 mouse. As to the method: A mixture of 713 μL milliQ water (Millipore, MA, USA), 200 μL 0.5 M phosphate buffer (pH 7.4, BD Diagnostic Systems, MD, USA), 50 μL NADPH regenerating system solution A (BD Biosciences, CA, USA), 10 μL NADPH regenerating system solution B (BD Biosciences, CA, USA) and 2 μL compound (5 mM in DMSO) was prepared and heated for 5 min at 37° C. Twenty-five μL of liver microsomes (0.5 mg protein/mL, Corning B.V. Life Sciences, Amsterdam, Netherlands) was added to the mixture and 20 μL samples were withdrawn at 0, 0.25, 0.5 and 1, 2, 4, 6 and 24 hours. Eighty μL (4×20 μL) of cold acetonitrile (Sigma-Aldrich, MO, USA) was added to the samples on ice for 10 min. Afterwards, the mixtures were centrifuged at 13,000 rpm for 5 min at 4° C. Seventy-five μL of an acetonitrile/water (10/90) mixture was added to 25 μL supernatant and the obtained samples were analyzed by LC-MS/MS (Waters Acquity H-class UPLC system with ion trap mass spectrometer, Bruker Daltonics Esquire 3000 plus, and Agilent 1100 Series LC system) in triplicate.
For orientation: Microsomes from liver hold many membrane-bound enzymes, among them those of drug oxidation.

The target in data set [3] is T1, ERBB4 (Homo sapiens, UniProt Q15303).
T1 construct: host or cells: U2OS
In words: PathHunter ERBB4/ERBB4 dimerization assay, dose-response curves. It counts as cell-based. The conditions noted are these: U2OS ERBB4/ERBB4 dimerization cell line, 6 hours, compound alone; for Emax: NRG-1 = 100. As to the method:
(§2) Following 1-12 passages, U2OS ERBB4/ERBB4 dimerization cell line (Eurofins, 93-0961C3) were seeded at 10,000 cells/well in 100 μL cell plating reagent (Eurofins, 93-0563R0A) in white walled 96-well plates (PerkinElmer, 6005680) and incubated for 24h at 37° C. in humidified atmosphere of 5% CO2 in air. Cells were treated with 10 μL of compound (prepared at 11×, Enamine), 10 μM Heregulin-β1 (NRG-1) (DiscoverX, 92-1031 or Peprotech, 100-03) or PBS. […] Cells were subsequently incubated for 6 hours at 37° C., 5% CO2. Then 110 μL PathHunter Flash Detection Reagents (93-0247) were added to each well and cells were incubated at room temperature for 1 hour (covered from light). Afterwards luminescence signal was measured using the Luminoskan Ascent (Thermofisher). Dose response curves of the compounds were performed in 2-fold (0,0625 μM-32 μM).
From these curves, the EC50 and the Emax of the compounds was calculated.

The target in data set [4] is T1, ERBB4. In words: PathHunter ERBB4/ERBB4 dimerization assay, compounds on top of 0.1 μM NRG-1 (identification of modulators). It counts as cell-based. The conditions noted are these: for Emax: on top of 0.1 μM NRG1, relative to NRG1 (set as 100%); for behaviour from the shape of the dose-response curves: on top of 0.1 μM neuregulin-1 (FIG. 1); for EC50: on top of 0.1 μM NRG1. As to the method: as §2
Cells were treated with compound (prepared at 22×, 10 min pre-incubation) together with NRG-1 (0.1 μM final concentration, Peprotech, 100-03), or NRG-1 (0.1 μM final concentration) or PBS.
The EC50 and the Emax of the compounds on top of 0.1 μM NRG1 is depicted in Table 3 relative to NRG1 (set as 100%).

A short description of data set [5]: Solubility in PBS (absorbance). It counts as physicochemical. The conditions noted are these: aqueous buffer, kinetic from dmso stock, 37° C., 2 hours (FIG. 10), read-out: solubility: concentration at which easily soluble. The procedure:
A dilution series (0.16, 0.31, 0.62, 1.25, 2.5 and 5 mM) was made starting with a compound stock solution of 10 mM in DMSO. Aliquot of 4 μL was taken out of every dilution and added to 196 μL PBS in a 96-well plate. The plate was shaken for 10 seconds, incubated at 37° C. for 2 hours and thereafter absorbance was measured. Samples were analyzed in duplicate.

Another data set can be described thus: Chemical stability. It counts as physicochemical. Conditions: 37° C. and pH 7.4 for 24 hours (FIG. 11). The procedure:
A 10 μL aliquot of compound solution (10 mM in DMSO) was added to 990 μL DMSO (100 μM) and further diluted with […] to a stock solution of 500 nM. The mixture was incubated at 37° C. Aliquots of 100 μL were taken at various time points (0, 0.5, 1, 2, 3, 6 and 24 hrs) and analyzed with LC-MS/MS (Waters Acquity H-class UPLC system with ion trap mass spectrometer, Bruker Daltonics Esquire 3000 plus, and Agilent 1100 Series LC system). Samples were analyzed in triplicate and plotted against a standard curve; compound at 31-500 nM in buffer solution of pH 7.4 (10 mM Potassium Phosphate, BD Gentest).

A short description of data set [6]: Plasma stability, mouse plasma. It counts as in vitro ADME. Conditions: 50 μM, 37° C., over 6 hours (FIG. 12). As to the method: as §1

Here are results for three molecules from patent US20240002351A1, “QUINAZOLIN-4-ONE AND THIENO[2,3-D]PYRIMIDIN-4-ONE INHIBITORS OF ERBB4 (HER4) FOR USE IN THE TREATMENT OF CANCER” (UNIVERSITEIT ANTWERPEN, priority 2021, published 2024).

By EC50 is commonly meant the concentration giving half of the maximal effect. A high value points to a need for much substance. The Emax is the size of the effect at its maximum, as opposed to the concentration needed.

T1 sequence (Q15303 26-1308): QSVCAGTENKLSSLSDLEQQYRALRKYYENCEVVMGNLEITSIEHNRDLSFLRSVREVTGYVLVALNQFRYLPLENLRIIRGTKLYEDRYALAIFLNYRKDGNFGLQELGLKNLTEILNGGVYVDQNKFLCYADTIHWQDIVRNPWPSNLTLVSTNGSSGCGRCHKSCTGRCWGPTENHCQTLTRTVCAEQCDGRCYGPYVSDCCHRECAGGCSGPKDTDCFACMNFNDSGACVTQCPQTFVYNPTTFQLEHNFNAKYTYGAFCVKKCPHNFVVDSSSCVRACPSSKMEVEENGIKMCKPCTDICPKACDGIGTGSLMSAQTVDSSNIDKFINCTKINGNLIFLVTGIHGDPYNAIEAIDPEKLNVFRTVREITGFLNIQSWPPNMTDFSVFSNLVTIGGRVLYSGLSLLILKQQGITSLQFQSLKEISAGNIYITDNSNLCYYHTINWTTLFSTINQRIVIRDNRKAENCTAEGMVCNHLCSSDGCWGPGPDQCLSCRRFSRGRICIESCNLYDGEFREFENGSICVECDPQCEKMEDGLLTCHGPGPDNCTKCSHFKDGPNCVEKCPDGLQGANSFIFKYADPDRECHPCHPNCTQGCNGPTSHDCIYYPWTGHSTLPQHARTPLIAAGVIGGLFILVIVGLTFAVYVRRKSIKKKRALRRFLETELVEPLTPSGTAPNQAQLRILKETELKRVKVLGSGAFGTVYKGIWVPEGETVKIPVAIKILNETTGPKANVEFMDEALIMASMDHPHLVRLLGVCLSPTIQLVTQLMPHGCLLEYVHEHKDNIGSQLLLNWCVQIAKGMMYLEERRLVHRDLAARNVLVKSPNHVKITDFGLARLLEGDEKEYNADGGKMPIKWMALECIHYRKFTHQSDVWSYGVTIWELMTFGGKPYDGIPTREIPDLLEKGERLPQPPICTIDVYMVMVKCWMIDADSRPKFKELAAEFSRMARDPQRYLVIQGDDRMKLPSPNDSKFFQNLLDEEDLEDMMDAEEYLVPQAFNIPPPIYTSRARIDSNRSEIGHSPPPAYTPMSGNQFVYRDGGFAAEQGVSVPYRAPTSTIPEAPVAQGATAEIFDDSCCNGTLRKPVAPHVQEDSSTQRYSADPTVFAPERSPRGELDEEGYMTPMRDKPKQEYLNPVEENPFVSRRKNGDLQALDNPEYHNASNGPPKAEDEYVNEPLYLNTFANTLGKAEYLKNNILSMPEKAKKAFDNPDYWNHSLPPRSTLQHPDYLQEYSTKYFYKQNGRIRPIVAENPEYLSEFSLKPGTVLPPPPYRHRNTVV

As for `CC(Sc1nc2ccccc2c(=O)n1C1CCCC1)c1nc2ccccc2n1C(F)F` (centres unmarked) [Compound 7], the “plasma stability, human plasma” value in data set [1] is recorded as “stable”. In data set [2], the “t1/2 mouse” value is recorded as 14 min and the half-life at 10 µM was 14 to 15 min. On ERBB4 [3], the response was half-maximal at 10.4 µM (EC50) and the Emax worked out at 9.76 ± 2.46%. Also, at ERBB4 [4], the maximum response (Emax) worked out at 139 ± 19% and the “behaviour from the shape of the dose-response curves” value (“behaviour from the shape” below) is on record as “weak or silent allosteric modulators”. For the same molecule, in data set [5], the solubility at 2 h was under 25 µM. Besides, the chemical stability entry in the data set “Chemical stability” was “chemically stable”. For the same molecule, the “plasma stability, mouse plasma” value in data set [6] is “stable”.
For `Cc1sc2nc(SC(C)C(=O)Nc3sccc3C(N)=O)n(CC(C)C)c(=O)c2c1C` (centres unmarked) [Compound 6], the “plasma stability, human plasma” value in data set [1] is “stable”. In data set [2], the “t1/2 mouse” value came out at 8 min and the half-life at 10 µM was 8 to 12 min. Also, on ERBB4 [3], it took 6.47 µM to reach a half-maximal effect (EC50) and the Emax is 10.3 ± 3.01%. In addition, on ERBB4 [4], the EC50 is about 13.9 µM, the Emax worked out at 112 ± 14% and the “behaviour from the shape” value is listed as “weak or silent allosteric modulators”. For the same molecule, the solubility at 2 h in data set [5] is under 25 µM. For the same molecule, the chemical stability entry in “Chemical stability” was “chemically stable”. Also, in data set [6], the “plasma stability, mouse plasma” value is given as “stable”.
For `O=C(NC1CC1)C(Sc1nc2ccccc2c(=O)n1C1CCCC1)c1ccccc1` (centres unmarked) [Compound 1], the “plasma stability, human plasma” value in data set [1] is given as “stable”. In addition, in data set [2], the “t1/2 mouse” value is 15 min and the half-life at 10 µM is 14 to 15 min. At ERBB4 [3], this molecule displayed an EC50 of 8.92 µM and an Emax of 33.1 ± 4.21%. Further, at ERBB4 [4], the 50% effective concentration (EC50) is about 1.6 µM, the Emax stood at 256 ± 126% and the “behaviour from the shape” value is on record as “ago-allosteric modulators”. For the same molecule, in data set [5], the solubility at 2 h is under 25 µM. Besides, in the data set “Chemical stability”, the chemical stability entry is on record as “chemically stable”. In data set [6], the “plasma stability, mouse plasma” value is “stable”.
